The record followed here is ChEMBL document CHEMBL4334517, “Flavipesines A and B and Asperchalasines E-H: Cytochalasans and Merocytochalasans from Aspergillus flavipes” (J Nat Prod, 2019).

SMILES strings stand for the structures.

As a reminder, the IC50 is the midpoint of a concentration-inhibition curve.

The target of the assay is Isocitrate dehydrogenase [NADP] cytoplasmic (Homo sapiens, UniProt O75874, R132H). The assay is described as follows: Inhibition of IDH1 R132H mutant (unknown origin) assessed as reduction in NADPH consumption using alpha-KG as substrate incubated for 5 mins followed by substrate addition and measured every 1 min.
Isocitrate dehydrogenase [NADP] cytoplasmic, sequence (O75874 2-414 R132H limits assumed): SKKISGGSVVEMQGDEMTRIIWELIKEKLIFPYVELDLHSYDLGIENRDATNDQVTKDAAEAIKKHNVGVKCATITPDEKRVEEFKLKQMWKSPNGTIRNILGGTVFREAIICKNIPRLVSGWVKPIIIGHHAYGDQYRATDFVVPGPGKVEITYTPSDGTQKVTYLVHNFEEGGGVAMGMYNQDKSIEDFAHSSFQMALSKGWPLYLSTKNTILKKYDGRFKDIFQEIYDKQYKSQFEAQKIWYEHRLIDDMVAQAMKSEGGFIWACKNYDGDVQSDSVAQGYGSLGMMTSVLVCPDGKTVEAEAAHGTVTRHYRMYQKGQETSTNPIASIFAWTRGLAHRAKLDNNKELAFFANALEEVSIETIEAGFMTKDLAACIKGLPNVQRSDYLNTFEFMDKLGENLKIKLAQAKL
As to `Cc1ccccc1C(C(=O)NC1CCCCC1)N(C(=O)Cn1ccnc1C)c1cccc(F)c1` (stereo not given), the IC50 came to 0.2 µM. With `CC(C)C[C@@H]1NC(=O)[C@]23[C@H]1[C@H](C)C(CO)=C[C@@H]2[C@@H]1[C@@]2(CCC[C@@]1(C)O)CC[C@]3(O)O2`, the concentration for half-maximal inhibition (IC50) was over 50 µM. Under `CC1=C[C@@H]2/C=C(\C)CC[C@@H](O)C(=O)[C@H]3[C@H](C(=O)[C@]24C(=O)N[C@@H](CC(C)C)[C@@H]4[C@@H]1C)[C@@H]1O[C@H]3c2c(O)c(O)c(O)c(C)c21` stands over 50 µM; under `CC1=C[C@@H]2/C=C(\C)CC[C@@H](O)C(=O)[C@H]3[C@H](C(=O)[C@]24C(=O)N[C@@H](CC(C)C)[C@@H]4[C@@H]1C)[C@@H]1O[C@H]3c2c(C)c(O)c(O)c(O)c21`, over 50 µM. As for `C=C1CC[C@@H](O)[C@]23CC[C@](O)(O2)[C@@]24C(=O)N[C@@H](CC(C)C)[C@@H]2[C@H](C)C(C)=C[C@@H]4[C@@H]13`, the figure is over 50 µM; as for `CC1=C[C@@H]2/C=C(\C)CC[C@@H](O)C(=O)[C@H]3[C@H](C(=O)[C@]24C(=O)N[C@@H](CC(C)C)[C@@H]4[C@@H]1C)[C@H]1O[C@@H]3c2c(O)c(O)c(O)c(C)c21`, over 50 µM; as for `COc1c(O)c(C)c2c(c1O)[C@H]1O[C@@H]2[C@H]2C(=O)[C@@]34C(=O)N[C@@H](CC(C)C)[C@@H]3[C@H](C)C(C)=C[C@@H]4/C=C(\C)CC[C@@H](O)C(=O)[C@@H]21`, 13.3 µM. Under `COc1c(O)c(C)c2c(c1O)[C@@H]1O[C@H]2[C@H]2C(=O)[C@H](O)CC/C(C)=C/[C@H]3C=C(C)[C@@H](C)[C@H]4[C@H](CC(C)C)NC(=O)[C@]43C(=O)[C@@H]21` stands 17.3 µM; under `COc1c(O)c(C)c2c(c1O)[C@@H]1O[C@H]2[C@H]2C(=O)[C@@]34C(=O)N[C@@H](CC(C)C)[C@@H]3[C@H](C)C(C)=C[C@@H]4/C=C(\C)CC[C@@H](O)C(=O)[C@@H]21`, 43.6 µM; under `COc1c(O)c(C)c2c(c1O)[C@H]1O[C@@H]2[C@H]2C(=O)[C@H](O)CC/C(C)=C/[C@H]3C=C(C)[C@@H](C)[C@H]4[C@H](CC(C)C)NC(=O)[C@]43C(=O)[C@@H]21`, 11.7 µM.
